The values that follow come from US8722849B2, “Polypeptides” (Novo Nordisk A/S, priority 2011, dated 2014).

≈ marks a conversion by molar mass, not a printed value. Read-outs that look alike come from different tables or passages of the source. Starred links: 1 amine or outer side, 2 acyl side, 3 side chain; linkers in the order of their positions; H or OH if unused. Positions of bridges follow the written chain, without caps; N, C: chain ends. Residues, ends and D or L forms follow the SMILES beside them. *: point of attachment. C20 diacid = O=C(O)CCCCCCCCCCCCCCCCCCC(=O)*; C18 diacid = O=C(O)CCCCCCCCCCCCCCCCC(=O)*; γGlu = O=C(O)[C@H](CCC(=O)[*:2])N[*:1] Some results are limits rather than exact numbers.

One may read the EC50 as the concentration giving half of the maximal effect. As a reminder, the solubility is the concentration that dissolves in the medium under given conditions.

Series [1] deals with T1, human calcitonin receptor (Homo sapiens, UniProt P30988).
T1 construct: expressed in transfected cells; host or cells: BHK570
T1 sequence (P30988 25-474): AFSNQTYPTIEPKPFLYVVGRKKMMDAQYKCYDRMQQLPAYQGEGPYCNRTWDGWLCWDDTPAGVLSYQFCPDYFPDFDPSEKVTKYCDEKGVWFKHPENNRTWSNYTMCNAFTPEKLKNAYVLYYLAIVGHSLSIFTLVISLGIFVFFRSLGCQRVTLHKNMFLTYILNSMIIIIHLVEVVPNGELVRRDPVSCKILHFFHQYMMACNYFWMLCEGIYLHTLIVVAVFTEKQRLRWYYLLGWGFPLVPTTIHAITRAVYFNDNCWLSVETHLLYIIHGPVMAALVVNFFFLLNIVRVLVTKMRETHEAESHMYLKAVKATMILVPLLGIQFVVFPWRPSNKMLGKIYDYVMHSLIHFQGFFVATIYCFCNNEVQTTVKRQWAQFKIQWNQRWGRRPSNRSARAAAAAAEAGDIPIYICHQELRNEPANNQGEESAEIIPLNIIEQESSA
The series is described as follows: Assay (II)a functional CRE-luciferase assay, human calcitonin receptor. The class given is cell-based. Conditions: Table 7; human calcitonin (CTa) receptor.

Series [2] is described as follows: Assay (III) ThT fibrillation assay for physical stability. The class given is physicochemical. Conditions: ThT fibrillation assay. The method, boiled down: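 Freshly prepared formulations, pH-adjusted, with 1 μM ThT; four or eight replicates incubated at 37 °C under 960 rpm orbital shaking. Fluorescence (ex 444/em 485 nm) read every 20 min; […]. Peptide concentration measured by RP-HPLC before and after the run.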

Series [3] addresses T2, human amylin receptor (amylin 3(a) receptor: human calcitonin receptor + RAMP-3) (Homo sapiens, UniProt O60896+P30988).
T2 construct: expressed in transfected cells; host or cells: BHK570
T2 sequence (P30988 25-474): T1 sequence (P30988 25-474)
T2 sequence (O60896 24-148 partner): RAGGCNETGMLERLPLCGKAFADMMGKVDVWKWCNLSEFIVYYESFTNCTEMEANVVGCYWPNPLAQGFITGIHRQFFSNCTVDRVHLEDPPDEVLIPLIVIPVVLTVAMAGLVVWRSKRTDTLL
Description: Assay (II)a functional CRE-luciferase assay, human amylin receptor. It counts as cell-based. Conditions: Table 2; BHK amylin 3(a)-receptor/CRE-luc cells.

The nature of series [4]: Assay (IV) determination of solubility. The class given is physicochemical. The method, boiled down: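 Eight 100 mM buffers (glycylglycine pH 3.0–5.0, bistrispropane pH 6.0–8.0) each received an equal volume of polypeptide dissolved in water at ~500 nmol/ml. Soluble polypeptide was measured by HPLC following 18 hours at room temperature and centrifugation.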
Setting [5] is: bistrispropane buffer, pH 6, pH 6.0, read-out: Solubility pH 6.0.
[6] abbreviates: bistrispropane buffer, pH 6.5, pH 6.5, read-out: Solubility pH 6.5.
Setting [7] is: bistrispropane buffer, pH 7, pH 7.0, read-out: Solubility pH 7.0.
[8] abbreviates: bistrispropane buffer, pH 7.5, pH 7.5, read-out: Solubility pH 7.5.
Where [9] appears, read: bistrispropane buffer, pH 8, pH 8.0, read-out: Solubility pH 8.0.
[10] abbreviates: glycylglycine buffer, pH 3, pH 3.0, read-out: Solubility pH 3.0.
The mark [11] stands for this setting: glycylglycine buffer, pH 4, pH 4.0, 18 hours at room temperature, Table 2, read-out: Solubility pH 4.0.
The mark [12] stands for this setting: glycylglycine buffer, pH 4, pH 4.0, read-out: Solubility pH 4.0.
Setting [13] is: glycylglycine buffer, pH 5, pH 5.0, read-out: Solubility pH 5.0.
Where [14] appears, read: bistrispropane buffer, pH 7, pH 7.0, 18 hours at room temperature, Table 3, read-out: Solubility pH 7.0.

Regarding `CC[C@H](C)[C@H](NC(=O)[C@@H]1CCCN1C(=O)CNC(=O)[C@H](Cc1ccccc1)NC(=O)[C@H](CC(N)=O)NC(=O)[C@H](CC(N)=O)NC(=O)[C@H](CO)NC(=O)[C@H](CO)NC(=O)[C@H](Cc1c[nH]cn1)NC(=O)[C@H](Cc1c[nH]cn1)NC(=O)[C@H](CC(C)C)NC(=O)[C@H](Cc1ccccc1)NC(=O)[C@H](CCC(=O)O)NC(=O)[C@H](C)NC(=O)[C@H](CC(C)C)NC(=O)[C@H](CCCNC(=N)N)NC(=O)[C@H](CCC(N)=O)NC(=O)[C@@H](NC(=O)[C@H](C)NC(=O)[C@@H]1CSSC[C@H](NC(=O)[C@H](CCCCN)NC(=O)[C@H](Cc2c[nH]cn2)NC(=O)CC[C@H](NC(=O)CCCCCCCCCCCCCCCCC(=O)O)C(=O)O)C(=O)N[C@@H](CC(N)=O)C(=O)N[C@@H]([C@@H](C)O)C(=O)N[C@@H](C)C(=O)N[C@@H]([C@@H](C)O)C(=O)N1)[C@@H](C)O)C(=O)N[C@@H](CC(C)C)C(=O)N1CCC[C@H]1C(=O)N1CCC[C@H]1C(=O)N[C@H](C(=O)N[C@@H](CC(N)=O)C(=O)N[C@H](C(=O)NCC(=O)N[C@@H](CO)C(=O)N[C@@H](Cc1c[nH]cn1)C(=O)N[C@H](C(=O)N[C@@H](Cc1ccc(O)cc1)C(N)=O)[C@@H](C)O)C(C)C)[C@@H](C)O` [Example 70, N-alpha-[(S)-4-Carboxy-4-(17-carboxyheptadecanoylamino)butyryl]-His-[Glu14,His17,His35]-pramlintide] ({C18 diacid-γGlu}-HKCNTATCATQRLAEFLHHSSNNFGPILPPTNVGSHTY-NH2; disulfide 3-8 (inferred); C-terminus assumed), the results for the EC50 in series [1] and in series [3] were 99 pM and 58.5 pM, respectively. Besides, the “ThT pH 4.0 lag time” value in series [2] is >45 h. Also, in series [2], the “ThT pH 4.0 lag time (h)” value is given as >45 h. Also, the solubility at 18 h in series [4] (setting [5]) was > 200 µM; in series [4] (setting [6]) it was 69 µM (≈ 317 µg/mL); in series [4] (setting [7]), 32 µM (≈ 147 µg/mL); in series [4] (setting [8]) it was 52 µM (≈ 239 µg/mL); in series [4] (setting [9]), 89 µM (≈ 408 µg/mL); in series [4] (setting [10]) it was > 200 µM. Besides, the solubility at 18 h in series [4] (setting [11]), in series [4] (setting [12]) and in series [4] (setting [13]) was > 200 µM throughout.

As to `CC[C@H](C)[C@H](NC(=O)[C@@H]1CCCN1C(=O)CNC(=O)[C@H](Cc1ccccc1)NC(=O)[C@H](CC(N)=O)NC(=O)[C@H](CC(N)=O)NC(=O)[C@H](CO)NC(=O)[C@H](CO)NC(=O)[C@H](Cc1c[nH]cn1)NC(=O)[C@H](Cc1c[nH]cn1)NC(=O)[C@H](CC(C)C)NC(=O)[C@H](Cc1ccccc1)NC(=O)[C@H](CCC(=O)O)NC(=O)[C@H](C)NC(=O)[C@H](CC(C)C)NC(=O)[C@H](CCCNC(=N)N)NC(=O)[C@H](CCC(N)=O)NC(=O)[C@@H](NC(=O)[C@H](C)NC(=O)[C@@H]1CSSC[C@H](NC(=O)[C@H](CCC(=O)O)NC(=O)[C@H](CCCNC(=N)N)NC(=O)[C@H](CCC(=O)O)NC(=O)[C@H](CCC(=O)O)NC(=O)CCCCCCCCCCCCCCCCCCC(=O)O)C(=O)N[C@@H](CC(N)=O)C(=O)N[C@@H]([C@@H](C)O)C(=O)N[C@@H](C)C(=O)N[C@@H]([C@@H](C)O)C(=O)N1)[C@@H](C)O)C(=O)N[C@@H](CC(C)C)C(=O)N1CCC[C@H]1C(=O)N1CCC[C@H]1C(=O)N[C@H](C(=O)N[C@@H](CC(N)=O)C(=O)N[C@H](C(=O)NCC(=O)N[C@@H](CO)C(=O)N[C@@H](CC(N)=O)C(=O)N[C@H](C(=O)N1CCC[C@H]1C(N)=O)[C@@H](C)O)C(C)C)[C@@H](C)O` [Example 125, N-alpha-(19-carboxynonadecanoyl)-Glu-Glu-Arg-[Glu1,Glu14,His17,Pro37]-pramlintide] ({C20 diacid}-EERECNTATCATQRLAEFLHHSSNNFGPILPPTNVGSNTP-NH2; disulfide 5-10 (inferred); C-terminus assumed), the EC50 in series [1] was 443 pM; in series [3], 288 pM. The “ThT pH 4.0 lag time (h)” value in series [2] is given as 19 h. Moreover, the solubility at 18 h in series [4] (setting [5]), in series [4] (setting [6]), in series [4] (setting [14]), in series [4] (setting [7]), in series [4] (setting [8]) and in series [4] (setting [9]) was > 200 µM each time. In addition, the solubility at 18 h in series [4] (setting [10]), in series [4] (setting [11]), in series [4] (setting [12]) and in series [4] (setting [13]) was > 200 µM throughout.

In the case of `CC[C@H](C)[C@H](NC(=O)[C@@H]1CCCN1C(=O)CNC(=O)[C@H](Cc1ccccc1)NC(=O)[C@H](CC(N)=O)NC(=O)[C@H](CCC(N)=O)NC(=O)[C@H](CO)NC(=O)[C@H](CO)NC(=O)[C@H](Cc1c[nH]cn1)NC(=O)[C@@H](NC(=O)[C@H](CC(C)C)NC(=O)[C@H](Cc1ccccc1)NC(=O)[C@H](CCC(=O)O)NC(=O)[C@H](C)NC(=O)[C@H](CC(C)C)NC(=O)[C@H](CCCNC(=N)N)NC(=O)[C@H](CCC(N)=O)NC(=O)[C@@H](NC(=O)[C@H](C)NC(=O)[C@@H]1CSSC[C@H](NC(=O)[C@H](CCC(=O)O)NC(=O)CC[C@H](NC(=O)CCCCCCCCCCCCCCCCCCC(=O)O)C(=O)O)C(=O)N[C@@H](CC(N)=O)C(=O)N[C@@H]([C@@H](C)O)C(=O)N[C@@H](C)C(=O)N[C@@H]([C@@H](C)O)C(=O)N1)[C@@H](C)O)C(C)C)C(=O)N[C@@H](CC(C)C)C(=O)N1CCC[C@H]1C(=O)N1CCC[C@H]1C(=O)N[C@H](C(=O)N[C@@H](CC(N)=O)C(=O)N[C@H](C(=O)NCC(=O)N[C@@H](CO)C(=O)N[C@@H](CCC(N)=O)C(=O)N[C@H](C(=O)N1CCC[C@H]1C(N)=O)[C@@H](C)O)C(C)C)[C@@H](C)O` [Example 138, N-alpha-[(S)-4-Carboxy-4-(19-carboxynonadecanoylamino)butyryl]-[Glu1,Glu14,Gln21,Gln35,Pro37]-pramlintide] ({C20 diacid-γGlu}-ECNTATCATQRLAEFLVHSSQNFGPILPPTNVGSQTP-NH2; disulfide 2-7), the EC50 in series [1] came to 496 pM; in series [3], 1510 pM. Besides, the “ThT pH 4.0 lag time (h)” value in series [2] was 1.3 h. For the same compound, the solubility at 18 h in series [4] (setting [5]), in series [4] (setting [6]), in series [4] (setting [14]), in series [4] (setting [7]), in series [4] (setting [8]) and in series [4] (setting [9]) was > 200 µM throughout. For the same compound, the solubility at 18 h in series [4] (setting [10]), in series [4] (setting [11]), in series [4] (setting [12]) and in series [4] (setting [13]) was > 200 µM in each case.
